Test results as given in ChEMBL document CHEMBL3351764, “Design, synthesis and biological activity of flavonoid derivatives as selective agonists for neuromedin U 2 receptor” (Bioorg Med Chem, 2014).
Activity calls are given as the source filed them. The rule behind the calls is not given here.

Legend:
[1] = target: Melanocyte-stimulating hormone receptor (Homo sapiens) (UniProt Q01726); test: Agonist activity at human MC1 receptor at 100 uM to 5 mM
[2] = target: Adrenocorticotropic hormone receptor (Homo sapiens) (UniProt Q01718); test: Agonist activity at human MC2 receptor at 100 uM to 5 mM
[3] = target: Melanocortin receptor 3 (Homo sapiens) (UniProt P41968); test: Agonist activity at human MC3 receptor at 100 uM to 5 mM
[4] = target: Adrenocorticotropic hormone receptor (Mus musculus) (UniProt Q64326); test: Agonist activity at mouse MC2 receptor at 100 uM to 5 mM
[5] = target: Melanocortin receptor 4 (Mus musculus) (UniProt P56450); test: Agonist activity at mouse MC4 receptor at 100 uM to 5 mM
[6] = target: Melanocortin receptor 5 (Mus musculus) (UniProt P41149); test: Agonist activity at mouse MC5 receptor at 100 uM to 5 mM
[7] = target: T1, 5-hydroxytryptamine receptor 2C (Homo sapiens) (UniProt P28335); test: Agonist activity at human 5HT2C receptor at 100 uM to 5 mM
T1 sequence (whole entry): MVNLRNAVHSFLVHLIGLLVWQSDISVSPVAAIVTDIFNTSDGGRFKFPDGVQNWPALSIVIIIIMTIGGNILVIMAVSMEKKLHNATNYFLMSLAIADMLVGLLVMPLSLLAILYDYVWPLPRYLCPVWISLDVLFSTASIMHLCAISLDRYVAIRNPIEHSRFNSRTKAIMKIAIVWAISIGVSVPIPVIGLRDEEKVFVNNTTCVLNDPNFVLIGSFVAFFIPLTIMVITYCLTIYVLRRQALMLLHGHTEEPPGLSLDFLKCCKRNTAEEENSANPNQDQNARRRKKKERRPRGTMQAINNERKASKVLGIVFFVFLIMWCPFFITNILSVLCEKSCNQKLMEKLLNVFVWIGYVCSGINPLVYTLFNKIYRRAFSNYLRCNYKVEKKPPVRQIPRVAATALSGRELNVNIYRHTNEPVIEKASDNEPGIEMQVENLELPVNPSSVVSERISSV

[8] = target: T2, Muscarinic acetylcholine receptor M1 (Homo sapiens) (UniProt P11229); test: Agonist activity at human M1 receptor at 100 uM to 5 mM
T2 sequence (whole entry): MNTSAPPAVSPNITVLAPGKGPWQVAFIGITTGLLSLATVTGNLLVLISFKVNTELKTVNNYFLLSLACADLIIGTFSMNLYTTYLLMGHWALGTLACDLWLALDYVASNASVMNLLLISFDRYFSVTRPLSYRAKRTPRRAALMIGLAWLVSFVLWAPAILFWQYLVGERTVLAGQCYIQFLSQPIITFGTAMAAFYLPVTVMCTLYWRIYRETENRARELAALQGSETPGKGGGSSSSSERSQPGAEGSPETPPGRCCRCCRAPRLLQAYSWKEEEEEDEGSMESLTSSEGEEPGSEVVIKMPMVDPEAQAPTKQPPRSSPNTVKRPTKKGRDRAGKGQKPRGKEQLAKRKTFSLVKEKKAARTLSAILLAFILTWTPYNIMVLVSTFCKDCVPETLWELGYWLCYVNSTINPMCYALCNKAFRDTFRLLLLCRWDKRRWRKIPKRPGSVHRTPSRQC

[9] = target: D(1A) dopamine receptor (Homo sapiens) (UniProt P21728); test: Agonist activity at human D1 receptor at 100 uM to 5 mM
[10] = target: D(1B) dopamine receptor (Homo sapiens) (UniProt P21918); test: Agonist activity at human D5 receptor at 100 uM to 5 mM
[11] = target: Adenosine receptor A2a (Homo sapiens) (UniProt P29274); test: Agonist activity at human A2a receptor at 100 uM to 5 mM
[12] = target: T3, Parathyroid hormone/parathyroid hormone-related peptide receptor (Homo sapiens) (UniProt Q03431); test: Agonist activity at human PTH receptor at 100 uM to 5 mM
T3 sequence (whole entry): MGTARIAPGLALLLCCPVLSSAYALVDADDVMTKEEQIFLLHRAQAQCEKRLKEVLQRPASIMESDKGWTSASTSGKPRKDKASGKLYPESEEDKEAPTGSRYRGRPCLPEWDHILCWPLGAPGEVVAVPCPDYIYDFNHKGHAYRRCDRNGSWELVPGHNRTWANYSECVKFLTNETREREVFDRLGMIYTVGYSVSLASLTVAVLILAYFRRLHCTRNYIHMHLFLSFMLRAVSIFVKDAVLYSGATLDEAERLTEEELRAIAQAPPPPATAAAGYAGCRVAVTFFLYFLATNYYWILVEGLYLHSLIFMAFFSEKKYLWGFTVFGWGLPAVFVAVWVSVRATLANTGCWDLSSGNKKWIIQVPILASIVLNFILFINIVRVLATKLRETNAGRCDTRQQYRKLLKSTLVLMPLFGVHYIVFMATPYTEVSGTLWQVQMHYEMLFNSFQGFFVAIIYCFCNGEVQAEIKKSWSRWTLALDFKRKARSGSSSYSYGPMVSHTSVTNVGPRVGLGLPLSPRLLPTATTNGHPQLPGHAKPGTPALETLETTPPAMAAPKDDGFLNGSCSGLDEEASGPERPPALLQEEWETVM

[13] = target: T4, Neuropeptide Y receptor type 5 (Homo sapiens) (UniProt Q15761); test: Agonist activity at human NPY5 receptor at 100 uM to 5 mM
T4 sequence (whole entry): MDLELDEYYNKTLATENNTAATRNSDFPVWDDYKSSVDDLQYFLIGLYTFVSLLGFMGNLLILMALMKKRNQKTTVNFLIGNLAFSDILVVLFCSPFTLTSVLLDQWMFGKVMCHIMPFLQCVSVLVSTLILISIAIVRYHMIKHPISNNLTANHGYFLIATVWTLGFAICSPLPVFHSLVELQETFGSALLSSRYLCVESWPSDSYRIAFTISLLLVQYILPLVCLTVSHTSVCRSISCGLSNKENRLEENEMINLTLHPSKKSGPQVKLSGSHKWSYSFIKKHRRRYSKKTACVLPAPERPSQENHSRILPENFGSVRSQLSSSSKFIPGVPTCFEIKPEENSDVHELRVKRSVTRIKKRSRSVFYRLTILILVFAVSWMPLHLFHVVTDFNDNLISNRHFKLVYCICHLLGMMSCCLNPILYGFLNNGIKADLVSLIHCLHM

Chain of Adrenocorticotropic hormone receptor (Homo sapiens) (Q01718 whole entry): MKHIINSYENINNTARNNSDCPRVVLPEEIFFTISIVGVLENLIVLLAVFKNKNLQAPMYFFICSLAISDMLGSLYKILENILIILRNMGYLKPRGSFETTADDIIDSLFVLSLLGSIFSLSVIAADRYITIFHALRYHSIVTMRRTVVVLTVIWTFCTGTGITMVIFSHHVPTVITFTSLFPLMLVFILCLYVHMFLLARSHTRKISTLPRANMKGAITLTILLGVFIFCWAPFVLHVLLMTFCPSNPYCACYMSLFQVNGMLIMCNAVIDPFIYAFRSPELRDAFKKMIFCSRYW
Chain of Adenosine receptor A2a (Homo sapiens) (P29274 whole entry): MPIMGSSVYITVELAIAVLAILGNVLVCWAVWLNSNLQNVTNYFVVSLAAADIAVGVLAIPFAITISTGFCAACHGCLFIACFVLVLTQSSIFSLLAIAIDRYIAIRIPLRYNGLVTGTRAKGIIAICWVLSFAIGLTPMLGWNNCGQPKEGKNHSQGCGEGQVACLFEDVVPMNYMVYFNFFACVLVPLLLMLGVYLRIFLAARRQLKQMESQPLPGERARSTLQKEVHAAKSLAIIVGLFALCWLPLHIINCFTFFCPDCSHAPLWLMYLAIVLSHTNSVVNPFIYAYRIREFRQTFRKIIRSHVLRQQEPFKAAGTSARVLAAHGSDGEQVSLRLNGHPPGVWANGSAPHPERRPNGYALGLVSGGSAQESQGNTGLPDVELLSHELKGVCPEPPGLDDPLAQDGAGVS
Chain of D(1B) dopamine receptor (Homo sapiens) (P21918 whole entry): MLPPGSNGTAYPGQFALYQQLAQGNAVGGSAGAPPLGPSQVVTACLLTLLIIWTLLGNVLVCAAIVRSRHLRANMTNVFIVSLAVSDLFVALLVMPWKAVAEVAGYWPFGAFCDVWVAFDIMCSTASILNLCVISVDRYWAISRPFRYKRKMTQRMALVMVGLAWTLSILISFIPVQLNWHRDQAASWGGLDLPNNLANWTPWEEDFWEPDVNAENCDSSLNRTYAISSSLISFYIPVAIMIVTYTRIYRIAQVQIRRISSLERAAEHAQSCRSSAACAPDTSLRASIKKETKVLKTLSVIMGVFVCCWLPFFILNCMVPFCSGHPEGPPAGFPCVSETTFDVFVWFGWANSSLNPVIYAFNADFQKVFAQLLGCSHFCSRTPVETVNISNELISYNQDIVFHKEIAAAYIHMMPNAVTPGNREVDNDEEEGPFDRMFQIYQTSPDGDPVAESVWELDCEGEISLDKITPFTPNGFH
Chain of Melanocortin receptor 5 (Mus musculus) (P41149 whole entry): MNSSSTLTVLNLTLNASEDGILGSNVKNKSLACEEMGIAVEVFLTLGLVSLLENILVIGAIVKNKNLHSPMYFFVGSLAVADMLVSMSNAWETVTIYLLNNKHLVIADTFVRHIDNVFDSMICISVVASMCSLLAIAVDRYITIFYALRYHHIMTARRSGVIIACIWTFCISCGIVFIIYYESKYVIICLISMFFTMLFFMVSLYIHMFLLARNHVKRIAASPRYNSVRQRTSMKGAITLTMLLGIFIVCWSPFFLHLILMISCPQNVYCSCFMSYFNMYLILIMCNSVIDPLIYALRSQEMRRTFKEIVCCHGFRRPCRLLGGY
Chain of Adrenocorticotropic hormone receptor (Mus musculus) (Q64326 whole entry): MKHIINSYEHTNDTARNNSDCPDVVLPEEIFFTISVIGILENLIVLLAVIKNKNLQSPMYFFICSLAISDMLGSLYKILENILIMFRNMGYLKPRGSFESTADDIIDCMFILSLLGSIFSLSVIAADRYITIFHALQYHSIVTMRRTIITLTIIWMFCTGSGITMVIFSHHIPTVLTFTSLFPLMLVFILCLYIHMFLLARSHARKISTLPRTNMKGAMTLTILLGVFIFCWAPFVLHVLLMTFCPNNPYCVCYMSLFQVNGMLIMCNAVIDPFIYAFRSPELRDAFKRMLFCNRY
Chain of Melanocortin receptor 3 (Homo sapiens) (P41968 whole entry): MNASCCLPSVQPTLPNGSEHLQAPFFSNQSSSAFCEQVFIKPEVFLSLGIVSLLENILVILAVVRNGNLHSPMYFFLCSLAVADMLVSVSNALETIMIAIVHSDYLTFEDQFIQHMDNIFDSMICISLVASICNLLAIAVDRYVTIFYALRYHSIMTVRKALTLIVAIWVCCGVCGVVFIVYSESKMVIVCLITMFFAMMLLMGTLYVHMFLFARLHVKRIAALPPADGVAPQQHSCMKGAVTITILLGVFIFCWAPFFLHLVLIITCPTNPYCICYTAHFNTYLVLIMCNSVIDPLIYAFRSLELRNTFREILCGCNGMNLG
Chain of Melanocortin receptor 4 (Mus musculus) (P56450 whole entry): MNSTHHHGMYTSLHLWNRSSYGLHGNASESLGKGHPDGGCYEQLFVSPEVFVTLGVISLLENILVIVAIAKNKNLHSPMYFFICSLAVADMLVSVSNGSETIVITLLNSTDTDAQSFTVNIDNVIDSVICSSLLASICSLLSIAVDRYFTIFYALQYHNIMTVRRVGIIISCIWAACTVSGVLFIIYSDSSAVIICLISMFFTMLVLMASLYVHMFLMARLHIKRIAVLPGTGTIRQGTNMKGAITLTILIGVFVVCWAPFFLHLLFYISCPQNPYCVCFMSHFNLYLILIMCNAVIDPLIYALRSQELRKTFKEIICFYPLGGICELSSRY
Chain of Melanocyte-stimulating hormone receptor (Homo sapiens) (Q01726 whole entry, looked up): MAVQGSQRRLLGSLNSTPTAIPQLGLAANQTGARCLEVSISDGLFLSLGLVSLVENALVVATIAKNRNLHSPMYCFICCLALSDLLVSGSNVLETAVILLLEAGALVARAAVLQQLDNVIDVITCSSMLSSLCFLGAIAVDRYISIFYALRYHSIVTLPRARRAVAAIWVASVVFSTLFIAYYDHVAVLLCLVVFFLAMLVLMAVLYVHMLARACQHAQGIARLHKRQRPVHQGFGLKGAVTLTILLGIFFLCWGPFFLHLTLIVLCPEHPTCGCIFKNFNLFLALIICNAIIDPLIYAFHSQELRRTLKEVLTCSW
Chain of D(1A) dopamine receptor (Homo sapiens) (P21728 whole entry): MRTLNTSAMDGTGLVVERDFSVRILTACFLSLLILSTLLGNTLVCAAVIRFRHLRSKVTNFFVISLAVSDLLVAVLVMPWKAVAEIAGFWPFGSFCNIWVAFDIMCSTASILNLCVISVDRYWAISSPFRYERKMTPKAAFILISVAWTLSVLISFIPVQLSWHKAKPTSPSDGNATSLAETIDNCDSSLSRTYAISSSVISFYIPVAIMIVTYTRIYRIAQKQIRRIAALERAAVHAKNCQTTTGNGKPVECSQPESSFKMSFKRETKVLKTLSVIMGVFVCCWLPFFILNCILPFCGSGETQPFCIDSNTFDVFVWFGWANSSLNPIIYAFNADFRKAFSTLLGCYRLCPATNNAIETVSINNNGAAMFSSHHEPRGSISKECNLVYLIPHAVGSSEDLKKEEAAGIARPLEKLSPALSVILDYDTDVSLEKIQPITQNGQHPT

Activity [1]	Activity [2]	Activity [3]	Activity [4]	Activity [5]	Activity [6]	Activity [7]	Activity [8]	Activity [9]	Activity [10]	Activity [11]	Activity [12]	Activity [13]	SMILES
inactive	inactive	inactive	inactive	inactive	inactive	inactive	inactive	inactive	inactive	inactive	inactive	inactive	O=c1cc(-c2ccc(Cl)cc2Cl)oc2ccccc12
inactive	inactive	inactive	inactive	inactive	inactive	inactive	inactive	inactive	inactive	inactive	inactive	inactive	O=c1c(O)c(-c2cccc(Cl)c2)oc2ccccc12
inactive	inactive	inactive	inactive	inactive	inactive	inactive	inactive	inactive	inactive	inactive	inactive	inactive	COc1c(-c2cc(Br)ccc2F)oc2ccccc2c1=O
inactive	inactive	inactive	inactive	inactive	inactive	inactive	inactive	inactive	inactive	inactive	inactive	inactive	O=c1c(O)c(-c2cccc(Cl)c2F)oc2ccccc12
inactive	inactive	inactive	inactive	inactive	inactive	inactive	inactive	inactive	inactive	inactive	inactive	inactive	O=c1c(O)c(-c2ccc(Cl)cc2Cl)oc2ccccc12
inactive	inactive	inactive	inactive	inactive	inactive	inactive	inactive	inactive	inactive	inactive	inactive	inactive	O=c1c(O)c(-c2ccccc2F)oc2ccccc12

Second part, the compound before the results:

SMILES	Activity [1]	Activity [2]	Activity [3]	Activity [4]	Activity [5]	Activity [6]	Activity [7]	Activity [8]	Activity [9]	Activity [10]	Activity [11]	Activity [12]	Activity [13]
CCOC(=O)COc1c(-c2cc(Br)ccc2F)oc2ccccc2c1=O	inactive	inactive	inactive	inactive	inactive	inactive	inactive	inactive	inactive	inactive	inactive	inactive	inactive
CCN(CC)c1ccc(-c2oc3ccccc3c(=O)c2O)cc1	inactive	inactive	inactive	inactive	inactive	inactive	inactive	inactive	inactive	inactive	inactive	inactive	inactive
O=c1c(O)c(-c2cccc(Br)c2)oc2ccccc12	inactive	inactive	inactive	inactive	inactive	inactive	inactive	inactive	inactive	inactive	inactive	inactive	inactive
Fc1ccccc1C1C=Cc2ccccc2O1 (racemic)	inactive	inactive	inactive	inactive	inactive	inactive	inactive	inactive	inactive	inactive	inactive	inactive	inactive
COc1ccc(-c2oc3ccccc3c(=O)c2O)cc1O	inactive	inactive	inactive	inactive	inactive	inactive	inactive	inactive	inactive	inactive	inactive	inactive	inactive
COc1ccc(C2C=Cc3ccccc3O2)cc1 (racemic)	inactive	inactive	inactive	inactive	inactive	inactive	inactive	inactive	inactive	inactive	inactive	inactive	inactive
